Assays:
Format in all cases: in vivo
[1] = tested on: green foxtail (Setaria viridis); test: Test A preemergence soil spray, visual injury rating 0-100; conditions: 10 days
In short: (§1)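 Compounds formulated in a non-phytotoxic solvent with surfactant are sprayed onto soil of freshly planted loam-sand pots ahead of emergence, or onto emerged plants 2-10 cm tall. After a 10-day greenhouse period, each species is scored visually for injury against untreated controls.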

corn (Zea mays) [2] = test: as above; conditions: 10 days
In short: as §1

kochia (Bassia scoparia) [3] = test: as above; conditions: 10 days
In short: as §1

[4] = tested on: ragweed (common ragweed, Ambrosia artemisiifolia); test: as above; conditions: 10 days
In short: as §1

[5] = tested on: oat, wild (wild oat, Avena fatua); test: as above; conditions: 10 days
In short: as §1

[6] = tested on: blackgrass (Alopecurus myosuroides); test: as above; conditions: 10 days
In short: as §1

[7] = tested on: barnyardgrass (Echinochloa crus-galli); test: as above; conditions: 10 days
In short: as §1

[8] = tested on: palmer (palmer amaranth, palmer pigweed, Amaranthus palmeri); test: as above; conditions: 10 days
In short: as §1

[9] = tested on: wheat (Triticum aestivum); test: as above; conditions: 10 days
In short: as §1

[10] = tested on: ryegrass, Italian (italian ryegrass, Lolium multiflorum); test: as above; conditions: 10 days
In short: as §1

soybean (Glycine max) [11] = test: as above; conditions: 10 days
In short: as §1

[12] = tested on: sedge, umbrella (small-flower umbrella sedge, Cyperus difformis); test: Test B flooded paddy test, visual plant response rating 0-100; conditions: 250 g ai/ha, Flood, applied to paddy water, evaluated after 13 days
In short: (§2)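 Paddy-water application: test compounds went directly into water flooded 3 cm above the soil surface, with plants at 2 leaves. After a 13-day greenhouse period, responses were judged by eye relative to controls; a dash marks an untested entry.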

[13] = tested on: ducksalad (Heteranthera limosa); test: as above; conditions: 250 g ai/ha, Flood, applied to paddy water, evaluated after 13 days
In short: as §2

[14] = tested on: barnyardgrass (Echinochloa crusgalli); test: as above; conditions: 250 g ai/ha, Flood, applied to paddy water, evaluated after 13 days
In short: as §2

rice (Oryza sativa) = test: as above; conditions: 250 g ai/ha, Flood, applied to paddy water, evaluated after 13 days
In short: as §2

[15] = tested on: green foxtail (Setaria viridis); test: Test A postemergence application, visual injury rating 0-100
In short: as §1

corn (Zea mays) [16] = test: as above
In short: as §1

[17] = tested on: galium (catchweed bedstraw, Galium aparine); test: as above
In short: as §1

kochia (Bassia scoparia) [18] = test: as above
In short: as §1

[19] = tested on: ragweed (common ragweed, Ambrosia artemisiifolia); test: as above
In short: as §1

[20] = tested on: horseweed (Erigeron canadensis); test: as above
In short: as §1

[21] = tested on: oat, wild (wild oat, Avena fatua); test: as above
In short: as §1

[22] = tested on: blackgrass (Alopecurus myosuroides); test: as above
In short: as §1

[23] = tested on: barnyardgrass (Echinochloa crus-galli); test: as above
In short: as §1

[24] = tested on: palmer (palmer amaranth, palmer pigweed, Amaranthus palmeri); test: as above
In short: as §1

[25] = tested on: wheat (Triticum aestivum); test: as above
In short: as §1

[26] = tested on: ryegrass, Italian (italian ryegrass, Lolium multiflorum); test: as above
In short: as §1

soybean (Glycine max) [27] = test: as above
In short: as §1

[28] = 62 g ai/ha, 0 = no effect, 100 = complete control
[29] = 62 g ai/ha, postemergence, 10 days, 0 = no effect, 100 = complete control
[30] = Postemergence, 16 g ai/ha, greenhouse 10 days, 0 no effect, 100 complete control

## COC(=O)C1C=CC(NC(=O)C2(C)CN(c3cccc(OC(F)(F)F)c3)C(=O)O2)C1 (mixture of isomers) [Compound 101]
[1]; 16 g ai/ha, 0 to 100 scale
  Foxtail, Green plant response rating: 0
[1]; [28]
  Foxtail, Green plant response rating (0-100): 0
Corn (Zea mays) [2]; 16 g ai/ha, 0 to 100 scale
  Corn plant response rating: 0
Corn (Zea mays) [2]; [28]
  Corn plant response rating (0-100): 50
Kochia (Bassia scoparia) [3]; 16 g ai/ha, 0 to 100 scale
  Kochia plant response rating: 0
Kochia (Bassia scoparia) [3]; [28]
  Kochia plant response rating (0-100): 0
[4]; 16 g ai/ha, 0 to 100 scale
  Ragweed plant response rating: 0
[4]; [28]
  Ragweed plant response rating (0-100): 10
[5]; 16 g ai/ha, 0 to 100 scale
  Oat, Wild plant response rating: 0
[5]; [28]
  Oat, Wild plant response rating (0-100): 80
[6]; 16 g ai/ha, 0 to 100 scale
  Blackgrass plant response rating: 0
[6]; [28]
  Blackgrass plant response rating (0-100): 50
[7]; 16 g ai/ha, 0 to 100 scale
  Barnyardgrass plant response rating: 0
[7]; [28]
  Barnyardgrass plant response rating (0-100): 60
[8]; 16 g ai/ha, 0 to 100 scale
  Pigweed, Palmer plant response rating: 0
[8]; [28]
  Pigweed, Palmer plant response rating (0-100): 0
[9]; 16 g ai/ha, 0 to 100 scale
  Wheat plant response rating: 0
[9]; [28]
  Wheat plant response rating (0-100): 40
[10]; 16 g ai/ha, 0 to 100 scale
  Ryegrass, Italian plant response rating: 0
[10]; [28]
  Ryegrass, Italian plant response rating (0-100): 80
Soybean (Glycine max) [11]; 16 g ai/ha, 0 to 100 scale
  Soybean plant response rating: 0
Soybean (Glycine max) [11]; [28]
  Soybean plant response rating (0-100): 0
[12]
  Plant response rating, Sedge, Umbrella (0 to 100 scale, 0 is no effect and 100 is complete control): 0
[13]
  Plant response rating, Ducksalad (0 to 100 scale, 0 is no effect and 100 is complete control): 0
[14]
  Plant response rating, Barnyardgrass (0 to 100 scale, 0 is no effect and 100 is complete control): 0
Rice (Oryza sativa)
  Plant response rating, Rice (0 to 100 scale, 0 is no effect and 100 is complete control): 0
[15]; [29]
  Foxtail, Green plant response rating (0-100): 50
[15]; [30]
  Foxtail, Green plant response rating (0 to 100 scale): 10
Corn (Zea mays) [16]; [29]
  Corn plant response rating (0-100): 90
Corn (Zea mays) [16]; [30]
  Corn plant response rating (0 to 100 scale): 50
[17]; [29]
  Galium plant response rating (0-100): 60
[17]; [30]
  Galium plant response rating (0 to 100 scale): 50
Kochia (Bassia scoparia) [18]; [29]
  Kochia plant response rating (0-100): 60
Kochia (Bassia scoparia) [18]; [30]
  Kochia plant response rating (0 to 100 scale): 10
[19]; [29]
  Ragweed plant response rating (0-100): 30
[19]; [30]
  Ragweed plant response rating (0 to 100 scale): 0
[20]; [29]
  Horseweed plant response rating (0-100): 10
[20]; [30]
  Horseweed plant response rating (0 to 100 scale): 10
[21]; [29]
  Oat, Wild plant response rating (0-100): 90
[21]; [30]
  Oat, Wild plant response rating (0 to 100 scale): 70
[22]; [29]
  Blackgrass plant response rating (0-100): 90
[22]; [30]
  Blackgrass plant response rating (0 to 100 scale): 80
[23]; [29]
  Barnyardgrass plant response rating (0-100): 90
[23]; [30]
  Barnyardgrass plant response rating (0 to 100 scale): 60
[24]; [29]
  Pigweed, Palmer plant response rating (0-100): 10
[24]; [30]
  Pigweed, Palmer plant response rating (0 to 100 scale): 0
[25]; [29]
  Wheat plant response rating (0-100): 80
[25]; [30]
  Wheat plant response rating (0 to 100 scale): 30
[26]; [29]
  Ryegrass, Italian plant response rating (0-100): 70
[26]; [30]
  Ryegrass, Italian plant response rating (0 to 100 scale): 50
Soybean (Glycine max) [27]; [29]
  Soybean plant response rating (0-100): 60
Soybean (Glycine max) [27]; [30]
  Soybean plant response rating (0 to 100 scale): 40

From patent publication US20260285850A1, “SUBSTITUTED OXAZOLIDINONES AND IMIDAZOLINONES AS HERBICIDES” (FMC CORPORATION, priority 2023, published 2026)
